Measurements published in US8846914B2, “Compositions to effect neuronal growth” (Neuralstem, Inc., priority 2003, dated 2014).

Assays:
[1] = tested on: human hippocampal stem cells differentiated for a period of 3-4 weeks; assay: 2° Assay Cell#/Apop (secondary neuroprotection/apoptosis assay); format: cell-based
Excerpt: Other potential AD therapeutics progressing in clinical trials, target neurodegeneration in the hopes of reducing the neuronal loss and cognitive decline. Apoptotic death involving caspase pathways and DNA fragmentation has been measured in in vitro and animal models of AD and in Alzheimer's diseased brain tissue. The extent of apoptosis leading to neuronal loss is of continual debate with most agreeing it has some effect, but that other neuronal death pathways definitely play a role (see Behl, 2000; Broe et al., 2001, Roth, 2001). […]
A number of neurogenic agents inhibit neuronal loss, caspase-3 activity and/or nuclear fragmentation compared to staurosporine vehicle control. These NSI small molecule agents are all effective at in vitro neurogenesis as determined by methods described. […] Instrumentation such as a Molecular Devices fluorescent plate reader or a […] Array Scan II instrument and the like may be used to measure the degeneration and apoptosis.
Another assay used to determine the ability of a compound to provide neuroprotection is an apoptosis assay. Apoptosis is measured using the activity of an early matter of the programmed cell death pathway, caspase-3. […] Caspase-3 activity is expressed as μM of cleaved substrate per hour. […]

[2] = tested on: Differentiating hippocampal stem cells; assay: Committed neuronal progenitors (Ki-67 / TuJ1 co-staining); format: cell-based, human; details: treated for 10 days; FIG. 14
Experimental: FIG. 14 is a micrograph illustrating an example of production of committed neuronal progenitors by NSI-106. Differentiating hippocampal stem cells were treated with NSI-106 for 10 days, fixed, and stained for Ki-67 protein as well as TuJ1. Ki-67 protein is an endogenous marker of mitosis.
FIG. 14 illustrates committed neuronal progenitor production by NSI-106. Differentiating hippocampal stem cells are treated with NSI-106 for 10 days, fixed, and stained for Ki-67 protein to detect dividing cells as well as TuJ1 to detect cells that have differentiated into neurons, Ki-67 protein is an endogenous marker of mitosis.

O=C(NCc1nc2ccccn2c1NCC1CCCO1)Oc1ccccc1 (stereo not drawn) [NSI-182]
2° Assay Apop [1]: 100 ± 27 | 2° Assay Cell# [1]: 78 ± 34/

CCCCNc1c(C2CCN(C(=O)CN(CC(C)C)S(C)(=O)=O)CC2)nc2cnccn12 [NSI-106]
Ki-67 and TuJ1 co-stained cells [2]: significant number of cells are co-stained
